Measured values taken from ChEMBL document CHEMBL4507256 (2021).

Key:
[1] = system: Tyrosine-protein kinase ABL1 (Homo sapiens), P00519 [F317I]; settings: Compound concentration 1000.0 nM
[2] = system: Tyrosine-protein kinase ABL1 (Homo sapiens), P00519 [T315I]; settings: Compound concentration 1000.0 nM
[3] = molecular target: Aurora kinase B (Homo sapiens) (UniProt Q96GD4); settings: Compound concentration 1000.0 nM
[4] = molecular target: Tyrosine-protein kinase receptor UFO (Homo sapiens) (UniProt P30530); settings: Compound concentration 1000.0 nM
[5] = molecular target: Mitotic checkpoint serine/threonine-protein kinase BUB1 (Homo sapiens) (UniProt O43683); settings: Compound concentration 1000.0 nM
[6] = molecular target: Calcium/calmodulin-dependent protein kinase type 1D (Homo sapiens) (UniProt Q8IU85); settings: Compound concentration 1000.0 nM
[7] = molecular target: Cyclin-dependent kinase 4 (Homo sapiens) (UniProt P11802); settings: Compound concentration 1000.0 nM
[8] = molecular target: Dual specificity protein kinase CLK3 (Homo sapiens) (UniProt P49761); settings: Compound concentration 1000.0 nM
[9] = molecular target: Casein kinase I isoform delta (Homo sapiens) (UniProt P48730); settings: Compound concentration 1000.0 nM
[10] = molecular target: Megakaryocyte-associated tyrosine-protein kinase (Homo sapiens) (UniProt P42679); settings: Compound concentration 1000.0 nM
[11] = molecular target: Death-associated protein kinase 1 (Homo sapiens) (UniProt P53355); settings: Compound concentration 1000.0 nM
[12] = system: Epidermal growth factor receptor (Homo sapiens), P00533 [L858R]; settings: Compound concentration 1000.0 nM
[13] = molecular target: Ephrin type-B receptor 2 (Homo sapiens) (UniProt P29323); settings: Compound concentration 1000.0 nM
[14] = molecular target: Receptor tyrosine-protein kinase erbB-2 (Homo sapiens) (UniProt P04626); settings: Compound concentration 1000.0 nM
[15] = system: Receptor-type tyrosine-protein kinase FLT3 (Homo sapiens), P36888 [D835Y]; settings: Compound concentration 1000.0 nM
[16] = system: eIF-2-alpha kinase GCN2 (Homo sapiens), Q9P2K8 [S808G]; settings: Compound concentration 1000.0 nM
[17] = molecular target: Serine/threonine-protein kinase haspin (Homo sapiens) (UniProt Q8TF76); settings: Compound concentration 1000.0 nM
Serine/threonine-protein kinase haspin (Homo sapiens), sequence (Q8TF76 whole entry): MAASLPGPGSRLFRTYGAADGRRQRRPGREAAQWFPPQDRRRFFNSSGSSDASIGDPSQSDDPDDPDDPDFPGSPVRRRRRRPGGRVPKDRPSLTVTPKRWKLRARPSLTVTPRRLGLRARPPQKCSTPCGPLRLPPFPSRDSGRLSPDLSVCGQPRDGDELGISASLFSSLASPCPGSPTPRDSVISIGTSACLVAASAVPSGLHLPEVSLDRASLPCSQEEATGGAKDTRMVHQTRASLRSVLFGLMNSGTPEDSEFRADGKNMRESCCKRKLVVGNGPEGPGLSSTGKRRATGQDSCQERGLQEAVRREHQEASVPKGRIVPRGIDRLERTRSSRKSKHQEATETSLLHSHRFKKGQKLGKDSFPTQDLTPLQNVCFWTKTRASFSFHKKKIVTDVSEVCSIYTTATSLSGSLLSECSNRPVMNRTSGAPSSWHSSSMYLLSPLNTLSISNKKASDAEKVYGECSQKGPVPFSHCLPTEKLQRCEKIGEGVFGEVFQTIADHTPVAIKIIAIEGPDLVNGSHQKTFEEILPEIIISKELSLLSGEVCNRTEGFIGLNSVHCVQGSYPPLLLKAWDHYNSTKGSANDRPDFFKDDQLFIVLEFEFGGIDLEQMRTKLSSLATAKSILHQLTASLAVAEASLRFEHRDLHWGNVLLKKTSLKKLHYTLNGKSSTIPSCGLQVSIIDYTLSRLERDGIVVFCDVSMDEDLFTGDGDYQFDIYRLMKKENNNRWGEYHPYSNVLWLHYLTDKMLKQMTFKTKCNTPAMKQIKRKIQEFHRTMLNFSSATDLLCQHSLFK

[18] = molecular target: Homeodomain-interacting protein kinase 2 (Homo sapiens) (UniProt Q9H2X6); settings: Compound concentration 1000.0 nM
[19] = molecular target: Homeodomain-interacting protein kinase 3 (Homo sapiens) (UniProt Q9H422); settings: Compound concentration 1000.0 nM
[20] = molecular target: Interleukin-1 receptor-associated kinase 3 (Homo sapiens) (UniProt Q9Y616); settings: Compound concentration 1000.0 nM
[21] = molecular target: Tyrosine-protein kinase ITK/TSK (Homo sapiens) (UniProt Q08881); settings: Compound concentration 1000.0 nM
[22] = molecular target: Serine/threonine-protein kinase LATS2 (Homo sapiens) (UniProt Q9NRM7); settings: Compound concentration 1000.0 nM
Serine/threonine-protein kinase LATS2 (Homo sapiens), sequence (Q9NRM7 whole entry): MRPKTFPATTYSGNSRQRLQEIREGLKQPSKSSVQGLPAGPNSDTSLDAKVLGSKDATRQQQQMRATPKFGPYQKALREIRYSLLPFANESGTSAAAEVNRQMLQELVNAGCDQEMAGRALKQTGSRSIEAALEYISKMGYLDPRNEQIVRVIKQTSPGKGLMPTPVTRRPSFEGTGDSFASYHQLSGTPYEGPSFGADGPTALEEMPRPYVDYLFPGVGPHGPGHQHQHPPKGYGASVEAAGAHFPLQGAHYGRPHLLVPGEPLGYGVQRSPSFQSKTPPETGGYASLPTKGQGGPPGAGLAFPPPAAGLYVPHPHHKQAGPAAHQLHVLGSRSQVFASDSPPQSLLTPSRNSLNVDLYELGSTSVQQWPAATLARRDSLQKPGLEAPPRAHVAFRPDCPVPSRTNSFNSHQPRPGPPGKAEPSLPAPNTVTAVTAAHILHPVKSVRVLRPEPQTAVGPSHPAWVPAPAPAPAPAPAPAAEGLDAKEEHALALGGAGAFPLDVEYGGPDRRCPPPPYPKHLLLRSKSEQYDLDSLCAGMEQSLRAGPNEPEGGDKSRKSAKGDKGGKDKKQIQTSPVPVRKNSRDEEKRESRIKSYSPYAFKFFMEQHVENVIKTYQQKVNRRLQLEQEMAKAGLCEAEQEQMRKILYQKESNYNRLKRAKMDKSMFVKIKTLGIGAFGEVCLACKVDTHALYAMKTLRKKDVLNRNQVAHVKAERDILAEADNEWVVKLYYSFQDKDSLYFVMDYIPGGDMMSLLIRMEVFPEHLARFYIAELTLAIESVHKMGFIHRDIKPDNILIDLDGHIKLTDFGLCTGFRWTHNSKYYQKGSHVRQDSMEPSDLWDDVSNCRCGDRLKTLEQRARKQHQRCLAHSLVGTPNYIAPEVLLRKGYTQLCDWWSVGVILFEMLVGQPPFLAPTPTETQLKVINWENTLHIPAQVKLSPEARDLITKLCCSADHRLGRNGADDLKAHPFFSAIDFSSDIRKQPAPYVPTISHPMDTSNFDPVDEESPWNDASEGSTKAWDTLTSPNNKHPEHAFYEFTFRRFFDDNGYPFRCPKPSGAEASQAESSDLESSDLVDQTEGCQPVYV

[23] = molecular target: Mitogen-activated protein kinase kinase kinase 3 (Homo sapiens) (UniProt Q99759); settings: Compound concentration 1000.0 nM
Mitogen-activated protein kinase kinase kinase 3 (Homo sapiens), sequence (Q99759 whole entry): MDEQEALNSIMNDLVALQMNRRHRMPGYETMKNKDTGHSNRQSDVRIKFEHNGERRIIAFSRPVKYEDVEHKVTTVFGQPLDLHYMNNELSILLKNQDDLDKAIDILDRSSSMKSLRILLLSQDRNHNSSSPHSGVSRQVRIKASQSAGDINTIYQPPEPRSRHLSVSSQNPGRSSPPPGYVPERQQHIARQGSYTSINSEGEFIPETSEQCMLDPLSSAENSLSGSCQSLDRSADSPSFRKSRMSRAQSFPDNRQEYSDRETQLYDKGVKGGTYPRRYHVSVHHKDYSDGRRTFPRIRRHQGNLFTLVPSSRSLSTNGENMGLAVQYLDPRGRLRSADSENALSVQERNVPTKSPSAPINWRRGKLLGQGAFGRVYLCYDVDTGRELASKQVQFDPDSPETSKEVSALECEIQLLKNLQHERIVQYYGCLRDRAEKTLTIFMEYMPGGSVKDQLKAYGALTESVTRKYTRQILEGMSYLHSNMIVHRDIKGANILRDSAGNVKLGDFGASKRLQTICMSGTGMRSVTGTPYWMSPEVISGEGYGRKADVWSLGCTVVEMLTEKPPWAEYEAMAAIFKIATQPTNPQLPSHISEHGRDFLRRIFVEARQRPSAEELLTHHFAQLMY

[24] = molecular target: Tyrosine-protein kinase Mer (Homo sapiens) (UniProt Q12866); settings: Compound concentration 1000.0 nM
[25] = molecular target: Myosin light chain kinase 2, skeletal/cardiac muscle (Homo sapiens) (UniProt Q9H1R3); settings: Compound concentration 1000.0 nM
[26] = molecular target: Platelet-derived growth factor receptor alpha (Homo sapiens) (UniProt P16234); settings: Compound concentration 1000.0 nM
[27] = molecular target: Phosphatidylinositol 3-kinase C2 domain-containing subunit gamma (Homo sapiens) (UniProt O75747); settings: Compound concentration 1000.0 nM
[28] = system: Phosphatidylinositol 4,5-bisphosphate 3-kinase catalytic subunit alpha isoform (Homo sapiens), P42336 [E545K]; settings: Compound concentration 1000.0 nM
[29] = molecular target: Phosphatidylinositol 4-phosphate 5-kinase type-1 alpha (Homo sapiens) (UniProt Q99755); settings: Compound concentration 1000.0 nM
[30] = molecular target: Membrane-associated tyrosine- and threonine-specific cdc2-inhibitory kinase (Homo sapiens) (UniProt Q99640); settings: Compound concentration 1000.0 nM
[31] = molecular target: Serine/threonine-protein kinase PknB (Mycobacterium tuberculosis) (UniProt P9WI81); settings: Compound concentration 1000.0 nM
Serine/threonine-protein kinase PknB (Mycobacterium tuberculosis), sequence (P9WI81 whole entry): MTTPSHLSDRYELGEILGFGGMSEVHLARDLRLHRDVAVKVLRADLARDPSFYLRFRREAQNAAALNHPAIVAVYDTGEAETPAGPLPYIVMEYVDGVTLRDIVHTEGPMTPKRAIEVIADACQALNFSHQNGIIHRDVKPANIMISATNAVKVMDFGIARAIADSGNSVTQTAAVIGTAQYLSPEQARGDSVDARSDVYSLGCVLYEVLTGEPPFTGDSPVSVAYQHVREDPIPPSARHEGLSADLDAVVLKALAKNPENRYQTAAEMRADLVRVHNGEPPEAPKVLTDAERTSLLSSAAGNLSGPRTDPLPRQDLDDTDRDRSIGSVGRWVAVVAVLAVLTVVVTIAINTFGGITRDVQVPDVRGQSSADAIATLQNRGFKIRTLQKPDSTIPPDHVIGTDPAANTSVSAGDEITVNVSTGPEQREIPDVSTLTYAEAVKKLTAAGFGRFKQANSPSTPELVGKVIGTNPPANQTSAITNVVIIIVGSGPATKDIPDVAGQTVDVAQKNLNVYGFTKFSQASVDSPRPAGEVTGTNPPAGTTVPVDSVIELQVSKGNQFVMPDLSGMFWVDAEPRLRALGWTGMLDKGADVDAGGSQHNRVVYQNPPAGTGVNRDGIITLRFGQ

[32] = molecular target: Serine/threonine-protein kinase PLK1 (Homo sapiens) (UniProt P53350); settings: Compound concentration 1000.0 nM
Serine/threonine-protein kinase PLK1 (Homo sapiens), sequence (P53350 whole entry): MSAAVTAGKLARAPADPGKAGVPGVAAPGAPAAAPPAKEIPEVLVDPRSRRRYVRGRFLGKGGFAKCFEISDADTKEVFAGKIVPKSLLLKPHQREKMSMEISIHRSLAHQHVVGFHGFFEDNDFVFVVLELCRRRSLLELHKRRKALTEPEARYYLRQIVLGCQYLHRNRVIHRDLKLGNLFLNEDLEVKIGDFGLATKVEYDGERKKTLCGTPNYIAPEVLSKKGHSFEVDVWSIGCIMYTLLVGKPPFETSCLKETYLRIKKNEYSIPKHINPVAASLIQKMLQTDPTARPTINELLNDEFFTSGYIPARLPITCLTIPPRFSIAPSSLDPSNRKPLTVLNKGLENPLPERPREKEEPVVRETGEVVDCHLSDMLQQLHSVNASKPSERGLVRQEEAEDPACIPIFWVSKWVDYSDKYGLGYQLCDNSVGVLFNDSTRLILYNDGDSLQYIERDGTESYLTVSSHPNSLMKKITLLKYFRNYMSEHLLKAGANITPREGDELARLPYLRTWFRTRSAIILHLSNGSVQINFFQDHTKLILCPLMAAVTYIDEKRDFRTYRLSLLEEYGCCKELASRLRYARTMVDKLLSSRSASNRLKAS

[33] = molecular target: cGMP-dependent protein kinase 1 (Homo sapiens) (UniProt Q13976); settings: Compound concentration 1000.0 nM
cGMP-dependent protein kinase 1 (Homo sapiens), sequence (Q13976 whole entry): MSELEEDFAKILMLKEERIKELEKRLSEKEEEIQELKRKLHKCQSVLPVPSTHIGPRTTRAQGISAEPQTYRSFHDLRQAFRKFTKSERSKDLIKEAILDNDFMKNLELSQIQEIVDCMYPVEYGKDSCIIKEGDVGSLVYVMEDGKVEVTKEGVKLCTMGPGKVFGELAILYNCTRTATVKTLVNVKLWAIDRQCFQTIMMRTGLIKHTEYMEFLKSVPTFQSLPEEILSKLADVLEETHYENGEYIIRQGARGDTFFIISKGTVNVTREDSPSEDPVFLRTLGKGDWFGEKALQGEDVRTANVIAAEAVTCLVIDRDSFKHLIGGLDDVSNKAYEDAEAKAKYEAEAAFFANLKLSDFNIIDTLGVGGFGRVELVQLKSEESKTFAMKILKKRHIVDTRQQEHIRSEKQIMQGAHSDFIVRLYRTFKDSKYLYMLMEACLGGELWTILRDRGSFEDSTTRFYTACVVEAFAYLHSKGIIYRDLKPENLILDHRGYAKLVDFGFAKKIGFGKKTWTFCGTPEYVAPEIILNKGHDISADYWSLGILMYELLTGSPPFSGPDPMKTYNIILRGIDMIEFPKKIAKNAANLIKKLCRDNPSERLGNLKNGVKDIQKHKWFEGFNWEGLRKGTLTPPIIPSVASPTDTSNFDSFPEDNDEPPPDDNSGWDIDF

[34] = molecular target: Protein-tyrosine kinase 2-beta (Homo sapiens) (UniProt Q14289); settings: Compound concentration 1000.0 nM
[35] = molecular target: Ribosomal protein S6 kinase alpha-4 (Homo sapiens) (UniProt O75676); settings: Compound concentration 1000.0 nM
[36] = molecular target: Ribosomal protein S6 kinase alpha-6 (Homo sapiens) (UniProt Q9UK32); settings: Compound concentration 1000.0 nM
[37] = molecular target: Ribosomal protein S6 kinase beta-1 (Homo sapiens) (UniProt P23443); settings: Compound concentration 1000.0 nM
[38] = molecular target: Serine/threonine-protein kinase Sgk1 (Homo sapiens) (UniProt O00141); settings: Compound concentration 1000.0 nM
Serine/threonine-protein kinase Sgk1 (Homo sapiens), sequence (O00141 whole entry): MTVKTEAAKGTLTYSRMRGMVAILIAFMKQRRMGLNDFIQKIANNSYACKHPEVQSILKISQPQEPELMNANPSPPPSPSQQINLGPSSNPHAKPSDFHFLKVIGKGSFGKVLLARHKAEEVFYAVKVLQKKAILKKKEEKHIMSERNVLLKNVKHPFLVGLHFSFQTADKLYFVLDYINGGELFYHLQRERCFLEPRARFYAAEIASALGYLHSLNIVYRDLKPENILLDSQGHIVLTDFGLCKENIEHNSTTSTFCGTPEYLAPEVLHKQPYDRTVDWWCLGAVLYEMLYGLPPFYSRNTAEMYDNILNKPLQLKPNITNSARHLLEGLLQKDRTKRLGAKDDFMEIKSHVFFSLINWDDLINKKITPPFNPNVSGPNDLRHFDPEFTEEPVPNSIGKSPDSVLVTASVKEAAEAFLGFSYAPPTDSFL

[39] = molecular target: Serine/threonine-protein kinase SIK1 (Homo sapiens) (UniProt P57059); settings: Compound concentration 1000.0 nM
[40] = molecular target: Serine/threonine-protein kinase 16 (Homo sapiens) (UniProt O75716); settings: Compound concentration 1000.0 nM
[41] = molecular target: Activated CDC42 kinase 1 (Homo sapiens) (UniProt Q07912); settings: Compound concentration 1000.0 nM
[42] = molecular target: High affinity nerve growth factor receptor (Homo sapiens) (UniProt P04629); settings: Compound concentration 1000.0 nM
[43] = molecular target: Non-receptor tyrosine-protein kinase TYK2 (Homo sapiens) (UniProt P29597); settings: Compound concentration 1000.0 nM
[44] = molecular target: Vascular endothelial growth factor receptor 2 (Homo sapiens) (UniProt P35968); settings: Compound concentration 1000.0 nM
[45] = molecular target: Kappa-type opioid receptor (Homo sapiens) (UniProt P41145); settings: Compound concentration 10.0 uM

CCC(=N\O)/C(C)=C/c1ccc(F)cc1 [A-079]
inactive: residual activity [1] 77% | residual activity [2] 75% | residual activity [3] 68% | residual activity [4] 100% | residual activity [5] 88% | residual activity [6] 100% | residual activity [7] 78% | residual activity [8] 73% | residual activity [9] 81% | residual activity [10] 72% | residual activity [11] 100% | residual activity [12] 65% | residual activity [13] 76% | residual activity [14] 83% | residual activity [15] 91% | residual activity [16] 70% | residual activity [17] 65% | residual activity [18] 100% | residual activity [19] 78% | residual activity [20] 100% | residual activity [21] 90% | residual activity [22] 100% | residual activity [23] 86% | residual activity [24] 100% | residual activity [25] 81% | residual activity [26] 78% | residual activity [27] 75% | residual activity [28] 100% | residual activity [29] 97% | residual activity [30] 100% | residual activity [31] 100% | residual activity [32] 93% | residual activity [33] 100% | residual activity [34] 99% | residual activity [35] 96% | residual activity [36] 94% | residual activity [37] 66% | residual activity [38] 89% | residual activity [39] 80% | residual activity [40] 97% | residual activity [41] 85% | residual activity [42] 83% | residual activity [43] 72% | residual activity [44] 81% | inhibition [45] 15.7%

CCC(=N\O)/C(C)=C/c1ccc(F)c(C)c1 [A-226]
inactive: residual activity [1] 100% | residual activity [2] 100% | residual activity [3] 100% | residual activity [4] 100% | residual activity [5] 100% | residual activity [6] 92% | residual activity [7] 100% | residual activity [8] 100% | residual activity [9] 92% | residual activity [10] 100% | residual activity [11] 97% | residual activity [12] 100% | residual activity [13] 99% | residual activity [14] 91% | residual activity [15] 100% | residual activity [16] 50% | residual activity [17] 100% | residual activity [18] 100% | residual activity [19] 100% | residual activity [20] 94% | residual activity [21] 91% | residual activity [22] 75% | residual activity [23] 100% | residual activity [24] 100% | residual activity [25] 78% | residual activity [26] 100% | residual activity [27] 98% | residual activity [28] 100% | residual activity [29] 100% | residual activity [30] 61% | residual activity [31] 92% | residual activity [32] 82% | residual activity [33] 100% | residual activity [34] 98% | residual activity [35] 100% | residual activity [36] 98% | residual activity [37] 100% | residual activity [38] 100% | residual activity [39] 96% | residual activity [40] 84% | residual activity [41] 100% | residual activity [42] 100% | residual activity [43] 100% | residual activity [44] 100% | inhibition [45] 8.6%
